Where two headings read alike, the source gives them in different places.
Assays:
[1] = molecular target: T1, PPARα (Rattus norvegicus, UniProt P37230); assay: HD bDNA Assay (HD gene induction); type: cell-based
T1 construct: H4IIE rat hepatoma cell line was obtained from ATCC; host or cells: H4IIE rat hepatoma cells
T1 sequence (P37230 1-468): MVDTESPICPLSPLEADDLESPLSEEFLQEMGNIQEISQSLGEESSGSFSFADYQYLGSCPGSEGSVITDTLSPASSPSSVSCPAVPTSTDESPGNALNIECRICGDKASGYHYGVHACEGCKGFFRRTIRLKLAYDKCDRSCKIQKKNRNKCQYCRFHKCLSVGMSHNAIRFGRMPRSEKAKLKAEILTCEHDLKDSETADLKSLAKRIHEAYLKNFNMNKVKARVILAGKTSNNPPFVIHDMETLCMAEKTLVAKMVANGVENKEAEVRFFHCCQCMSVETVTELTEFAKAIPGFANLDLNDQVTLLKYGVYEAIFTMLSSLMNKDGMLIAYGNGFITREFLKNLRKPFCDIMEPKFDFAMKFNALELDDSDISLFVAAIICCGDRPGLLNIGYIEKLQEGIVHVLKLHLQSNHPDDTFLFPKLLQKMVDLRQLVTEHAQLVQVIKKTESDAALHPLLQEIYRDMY
Method: HD bDNA Assay H4IIE rat hepatoma cell line was obtained from ATCC. Cells were cultured in 175 cm^2 tissue culture flask or seeded in 96-well plate with (high serum content, 10% fetal bovine serum and 10% calf serum) culture medium and maintained at 37° C. and 5% CO2 throughout study. Twenty-four hours after the initial seeding of the 96-well plate by hand (approximate 100,000/well), the HD gene induction assay was initiated. Media was removed and replaced with 100 ul of low serum culture media (5% charcoal/dextran treated calf serum) containing vehicle (DMSO) or test compounds or standard. Cells returned to incubator for 24 hours culture. At the termination of the challenge, 50 ul lysis buffer with HD gene specific CE, LE, BL probes was added directly into each well to initiate the bDNA HD mRNA assay. The branched DNA assay was performed according to the manufacturer's protocol (Bayer Diagnostics; Emeryville. Calif.). At the end of the assay, the luminescence was quantitated in Dynex MLX microtiter plate luminometer. EC50's were determined by non-linear regression with a sigmoidal fit utilizing Graphpad Prism.

[2] = molecular target: T2, PPARδ (Homo sapiens, UniProt Q03181); assay: Transfection Assay for PPARδ Receptors (PPAR-Gal4 / Gal4-Luciferase reporter in HEK293 cells); type: cell-based; conditions: for PPARδ FI: fold induction, PPARδ standard: FI = 36.1
T2 construct: a Gal4-Luciferase reporter is co-transfected
T2 sequence (Q03181 171-441 limits assumed): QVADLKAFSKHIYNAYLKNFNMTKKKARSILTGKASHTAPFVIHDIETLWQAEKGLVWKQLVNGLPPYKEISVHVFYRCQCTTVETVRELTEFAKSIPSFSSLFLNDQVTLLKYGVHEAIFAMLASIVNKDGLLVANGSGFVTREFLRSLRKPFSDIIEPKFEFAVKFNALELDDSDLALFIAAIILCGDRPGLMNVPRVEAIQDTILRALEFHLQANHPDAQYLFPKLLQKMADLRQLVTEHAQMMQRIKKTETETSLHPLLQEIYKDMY
Method: Transfection Assay for PPARδ Receptors
HEK293 cells were grown in DMEM/F-12 Media supplemented with 10% FBS and glutamine (GIBCOBRL). The cells were co-transfected with DNA for PPAR-Gal4 receptor and Gal4-Luciferase Reporter using the DMRIE-C Reagent. On the following day, the DNA-containing medium were replaced with 5% Charcoal treated FBS growth medium. After six hours, cells were seeded in 96 well plate and incubated at 37° C. in CO2 incubator overnight. Cells were challenged by test compounds and incubated for 24 hours at 37° C. in 5% CO2 incubator. Luciferase activity was assayed using the Steady-Glo Luciferase Assay Kit from Promega. DMRIE-C Reagent was purchased from GIBCO Cat. No.10459-014. OPTI-MEM I Reduced Serum Medium was purchased from GIBCO Cat. No. 31985. Steady-Glo Luciferase Assay Kit was obtained from Promega Part# E254B.

[3] = tested on: db/db mice; assay: Oral dosing in female db/db mice; type: in vivo; conditions: Mus musculus, 240 h, 1.0 mpk, 10 day oral dosing, % change compared to vehicle
Method: The compound was prepared as suspensions in 0.5% hydroxypropylmethylcellulose (Dow Chemical, Midland, Mich.). The dosing volume was 10 mL/kg of body weight. […] Body weight was measured in the mornings on Day 1, prior to dosing, and on Day 12 before bleeding. 18-24 hours after the final dose for each group, the mice were anesthetized with CO2/O2 (70:30) and bled by retro-orbital sinus puncture into micro-tubes containing clog activator and then put in ice. The serum samples were prepared by centrifugation. Serum glucose and triglycerides were determined by using COBAS Mira Plus blood chemistry analyzer (Roche Diagnostics, N.J.). Serum insulin was measured by using ALPCO insulin ELISA kit.
Statistical analysis was performed using the program Prism (Graphpad, Monrovia, Calif.) and performing one-way ANOVA with a Dunnet's multiple comparison test.

[4] = H4IIE rat hepatoma cells, 24 hours, read-out: PPARα EC50
[5] = in section F, target not named there, values match the PPARα column, read-out: EC50

Structure (SMILES)	EC50 [1, 4] [nM]	other results
CC(C)(Sc1ccc2c(c1)CC(N(CC1CCCCC1)C(=O)Nc1ccc(OC(F)(F)F)cc1)C2)C(=O)O (centres unmarked) [Example 40, 2-{2-[1-Cyclohexylmethyl-3-(4-trifluoromethoxyphenyl)ureido]indan-5-ylsulfanyl]-2-methylpropionic acid]	1300	–
CC(C)(Sc1ccc2c(c1)CC(N(CCCC(F)(F)F)C(=O)Nc1ccc(OC(F)(F)F)cc1)C2)C(=O)O (centres unmarked) [Example 36, 2-Methyl-2-{2-[1-(4,4,4-trifluorobutyl)-3-(4-trifluoromethoxyphenyl)ureido]indan-5-ylsulfanyl}propionic acid]	796	–
CCCCCCCN(C(=O)Nc1cccc(Cl)c1)C1Cc2ccc(SC(C)(C)C(=O)O)cc2C1 (centres unmarked) [Example 44, 2-{2-[3-(3-Chlorophenyl)-1-heptylureido]indan-5-ylsulfanyl}-2-methylpropionic acid]	2090	–
CCCN(C(=O)Nc1ccc(C(F)(F)F)cc1)C1Cc2ccc(SC(C)(C)C(=O)O)cc2C1 (centres unmarked) [Example 35, 2-Methyl-2-{2-[1-propyl-3-(4-trifluoromethylphenyl)ureido]indan-5-ylsulfanyl}-propionic acid]	772	PPARδ FI [2]: 5.6
CCCCCN(C(=O)Nc1ccc2c(c1)CCC2)C1Cc2ccc(SC(C)(C)C(=O)O)cc2C1 (centres unmarked) [Example 29, 2-[2-(3-Indan-5-yl-1-pentylureido)indan-5-ylsulfanyl}-2-methylpropionic acid]	382	–
CCCCN(C(=O)Nc1ccc(SC(F)(F)F)cc1)C1CCc2cc(SC(C)(C)C(=O)O)ccc2C1 (centres unmarked) [Example 23, 2-{6-[1-Butyl-3-(4-trifluoromethylsulfanylphenyl)ureido]-5,6,7,8-tetrahydronaphthalen-2-ylsulfanyl}-2-methylpropionic acid]	–	EC50 [1, 5]: 244 nM
CC(C)(Sc1ccc2c(c1)CC(N(Cc1cccc3ccccc13)C(=O)Nc1ccc(OC(F)(F)F)cc1)C2)C(=O)O (centres unmarked) [Example 31, 2-Methyl-2-{2-[1-naphthalen-1 ylmethyl-3-(4-trifuoromethoxyphenyl)-ureido]indan-5-ylsulfanyl}-propionic acid]	497	–
CCN(C(=O)Nc1ccc(OC(F)(F)F)cc1)C1CCc2cc(SC(C)(C)C(=O)O)c(Br)cc2C1 (centres unmarked) [Example 52, 2-{6-[1-Ethyl-3-(4-trifluoromethoxyphenyl)ureido]-3-bromo-5,6,7,8-tetrahydronaphthalen-2-ylsulfanyl}-2-methylpropionic acid]	–	EC50 [1, 5]: 17 nM; EC50 ([2]; values in square brackets): > 3000 nM
CCN(C(=O)Nc1ccc(OC(F)(F)F)c(Br)c1)C1Cc2ccc(SC(C)(C)C(=O)O)cc2C1 (centres unmarked) [Example 25, 2-{2-[3-(3-Bromo-4-trifluoromethoxyphenyl)-1-ethylureido]indan-5-ylsulfanyl}-2-methylpropionic acid]	208	PPARδ FI [2]: 4.5
CCCCCN(C(=O)Nc1ccc2ccccc2c1)C1Cc2ccc(SC(C)(C)C(=O)O)cc2C1 (centres unmarked) [Example 39, 2-Methyl-2-[2-(3-naphthalen-2-yl-1-pentylureido)indan-5-ylsulfanyl]propionic acid]	1000	PPARδ FI [2]: 9.3
CCCCN(C(=O)Nc1ccc(OC(F)(F)F)cc1)C1CCc2cc(SC(C)(C)C(=O)O)ccc2C1 (centres unmarked) [Example 22, 2-{6-[1-Butyl-3-(4-trifluoromethoxyphenyl)ureido]-5,6,7,8-tetrahydronaphthalen-2-ylsulfanyl}-2-methylpropionic acid]	–	EC50 [1, 5]: 219 nM
CCCCCCCN(C(=O)Nc1ccc(Cl)c(Cl)c1)C1Cc2ccc(SC(C)(C)C(=O)O)cc2C1 (centres unmarked) [Example 42, 2-{2-[3-(3,4-Dichlorophenyl)-1-heptylureido]indan-5-ylsulfanyl}-2-methylpropionic acid]	2340	–
CN(C)c1ccc(NC(=O)N(C)C2Cc3ccc(SC(C)(C)C(=O)O)cc3C2)cc1 (centres unmarked) [Example 27, 2-{2-[3-(4-Dimethylaminophenyl)-1-methylureido]indan-5-ylsulfanyl}-2-methylpropionic acid]	294	–
COC(=O)CCCCCN(C(=O)Nc1ccc(C(C)C)cc1)C1Cc2ccc(SC(C)(C)C(=O)O)cc2C1 (centres unmarked) [Example 38, 6-[1-[5-(1-Carboxy-1-methylethylsulfanyl)indan-2-yl]-3-(4-isopropylphenyl)-ureido]hexanoic acid methyl ester]	950	–
CC(C)CN(C(=O)Nc1ccc(OC(F)(F)F)cc1)C1Cc2ccc(SC(C)(C)C(=O)O)cc2C1 (centres unmarked) [Example 41, 2-{2-[1-Isobutyl-3-(4-trifluoromethoxyphenyl)ureido]indan-5-ylsulfanyl}-2-methylpropionic acid]	2210	–
CCCCCCCN(C(=O)Nc1ccc(OC(F)(F)F)cc1)C1Cc2ccc(SC3(C(=O)O)CCC3)cc2C1 (centres unmarked) [Example 45, 1-{2-[1-Heptyl-3-(4-trifluoromethoxyphenyl)ureido]indan-5-ylsulfanyl}-cyclobutanecarboxylic acid]	780	–
COCCN(C(=O)Nc1ccc(SC(F)(F)F)cc1)C1Cc2ccc(SC(C)(C)C(=O)O)cc2C1 (centres unmarked) [Example 34, 2-{2-[1-(2-Methoxyethyl)-3-(4-trifluoromethylsulfanylphenyl)ureido]indan-5-ylsulfanyl}-2-methylpropionic acid]	657	–
CCCCCN(C(=O)Nc1ccc(C)c([N+](=O)[O-])c1)C1Cc2ccc(SC(C)(C)C(=O)O)cc2C1 (centres unmarked) [Example 30, 2-Methyl-2-{2-[3-(4-methyl-3-nitrophenyl)-1-pentylureido]indan-5-ylsulfanyl} propionic acid]	385	–
CCCCCCN(C(=O)Nc1ccc(OC(F)(F)F)cc1)C1CCc2cc(SC(C)(C)C(=O)O)ccc2C1 (centres unmarked) [Example 24, 2-{6-[1-Hexyl-3-(4-trifluoromethoxyphenyl)ureido]-5,6,7,8-tetrahydronaphthalen-2-ylsulfanyl}-2-methylpropionic acid]	–	EC50 [1, 5]: 235 nM
CCN(C(=O)Nc1ccc(OC(F)(F)F)cc1)C1CCc2cc(SC(C)(C)C(=O)O)ccc2C1 (centres unmarked) [Example 1, 2-{6-[1-Ethyl-3-(4-trifluoromethoxyphenyl)ureido]-5,6,7,8-tetrahydronaphthalen-2-ylsulfanyl}-2-methylpropionic acid]	–	EC50 [1, 5]: 23 nM; change in vivo at 1 mg/kg ([3]; read-out: Δ BW): -12%; change in vivo at 1 mg/kg ([3]; read-out: Δ Plasma Glucose): -73%; change in vivo at 1 mg/kg ([3]; read-out: Δ Plasma Insulin): -46%; change in vivo at 1 mg/kg ([3]; read-out: Δ Plasma TG): -52%
CN(C)CCN(C(=O)Nc1ccc(SC(F)(F)F)cc1)C1Cc2ccc(SC(C)(C)C(=O)O)cc2C1 (centres unmarked) [Example 43, 2-{2-[1-(2-Dimethylaminoethyl)-3-(4-trifluoromethylsulfanylphenyl)ureido]indan-5-ylsulfanyl}-2-methylpropionic acid]	2990	–

Reference: patent US20040171680A1, “Treating Syndrome X with substituted tetralins and indanes” (priority 2002, published 2004)
